In a compilation of properties of binary mixtures (doi:10.1021/je401124t):

Assay: xn = mol fraction of the nth substance listed
Settings: 101 kPa

COP(=O)([O-])OC.Cn1cc[n+](C)c1 + CC(C)O
viscosity [mPa·s]
Settings | x2 = 0 | x2 = 0.0999 | x2 = 0.2032 | x2 = 0.301 | x2 = 0.402 | x2 = 0.5002 | x2 = 0.6 | x2 = 0.7009 | x2 = 0.7997 | x2 = 0.9013
293.15 K | – | – | 254 | 173.1 | – | 67 | 38.35 | 21.3 | 11.44 | 5.77
298.15 K | 291 | 253 | – | 129.9 | 75.3 | – | 31.53 | – | 9.87 | 5
303.15 K | 210 | 184.2 | 136.2 | 99.8 | 61.1 | – | 26.2 | 15.37 | 8.59 | 4.361
308.15 K | 155.6 | 138.2 | 105 | 78.4 | 49.7 | 35.62 | 22.05 | – | 7.54 | –
313.15 K | – | – | – | – | 40.99 | 29.78 | 18.74 | 11.54 | 6.64 | 3.359
318.15 K | 92.8 | 82.8 | – | 51.5 | 33.95 | – | 16.13 | – | 5.89 | 2.969
323.15 K | 74.2 | 66.4 | 54 | 42.88 | 28.66 | – | 14.03 | 8.94 | 5.25 | –

COP(=O)([O-])OC.Cn1cc[n+](C)c1 + CCCO
viscosity [mPa·s]
Settings | x2 = 0 | x2 = 0.098 | x2 = 0.1993 | x2 = 0.3018 | x2 = 0.4 | x2 = 0.5002 | x2 = 0.5996 | x2 = 0.6995 | x2 = 0.799 | x2 = 0.8998
293.15 K | 416 | 296 | 211 | – | 85.2 | 50.8 | 29.52 | 17.53 | 9.79 | 4.441
298.15 K | – | 215 | 154.1 | 93 | 66.9 | 41.59 | 25.38 | 15.17 | 8.63 | 3.929
303.15 K | 210 | 159 | – | 74.1 | 53.6 | – | – | 13.16 | 7.61 | 3.492
308.15 K | 155.6 | 121.1 | – | 59.5 | 43.67 | 28.52 | 18.35 | 11.51 | 6.76 | 3.118
313.15 K | 119.2 | 93.9 | 71.2 | 48.5 | 36.1 | 24.02 | – | 10.13 | 6.04 | 2.795
318.15 K | 92.8 | – | 57.8 | 39.92 | – | – | 13.79 | 8.97 | 5.42 | 2.516
323.15 K | 74.2 | 60.9 | 47.8 | – | 25.67 | 17.68 | – | 8 | – | 2.273

COP(=O)([O-])OC.Cn1cc[n+](C)c1 + CCO
viscosity [mPa·s]
Settings | x2 = 0 | x2 = 0.0999 | x2 = 0.2028 | x2 = 0.3009 | x2 = 0.4074 | x2 = 0.5028 | x2 = 0.6 | x2 = 0.6992 | x2 = 0.7999 | x2 = 0.9
293.15 K | 416 | 339 | 246 | 134.3 | 77.7 | – | – | 13.76 | – | –
298.15 K | 291 | 238 | 182.5 | 98.7 | – | 30.76 | – | 11.97 | 5.6 | 2.824
303.15 K | 210 | – | 138.5 | 78.5 | 48.7 | 25.78 | 18.08 | 10.5 | – | 2.567
308.15 K | 155.6 | 130.7 | 106.8 | 62.9 | 39.62 | – | 15.59 | – | 4.509 | 2.341
313.15 K | 119.2 | 100.8 | 84 | 51 | 32.73 | 18.94 | 13.59 | 8.27 | 4.077 | 2.143
318.15 K | – | 79.1 | 67 | 41.98 | 27.44 | 16.42 | 11.88 | 7.41 | – | 1.97
323.15 K | 74.2 | – | 54.4 | 35.06 | 23.3 | 14.35 | 10.51 | 6.68 | 3.378 | –

COP(=O)([O-])OC.Cn1cc[n+](C)c1 + CO
viscosity [mPa·s]
Settings | x2 = 0 | x2 = 0.1054 | x2 = 0.2009 | x2 = 0.2977 | x2 = 0.3984 | x2 = 0.5028 | x2 = 0.6018 | x2 = 0.7027 | x2 = 0.8002 | x2 = 0.8998
293.15 K | 416 | 278 | 174.8 | 111.5 | 68 | 36.25 | – | 10.21 | 4.9 | –
298.15 K | – | 201.1 | 121.9 | – | – | 29.9 | 17.07 | 9.02 | 4.419 | 1.776
303.15 K | 210 | 149.7 | – | 67.9 | 43.95 | – | 14.7 | 8.01 | 4.006 | 1.642
308.15 K | 155.6 | 114.3 | – | 54.4 | 36.27 | – | 12.81 | 7.16 | 3.65 | 1.523
313.15 K | 119.2 | 89.4 | 60.5 | 44.4 | 30.38 | 18.06 | 11.25 | 6.44 | 3.336 | 1.416
318.15 K | 92.8 | – | 49.2 | 36.86 | 25.8 | 15.62 | 9.96 | – | 3.061 | 1.322
323.15 K | 74.2 | 58.3 | 40.66 | – | 22.16 | – | 8.88 | 5.3 | 2.82 | 1.243

CC(C)O + COP(=O)([O-])OC.Cn1cc[n+](C)c1
x1 = 1
Settings | viscosity [mPa·s]
293.15 K | 2.439
298.15 K | 2.134
303.15 K | 1.845
308.15 K | 1.603
313.15 K | 1.4
318.15 K | 1.228
323.15 K | 1.083

CCCO + COP(=O)([O-])OC.Cn1cc[n+](C)c1
x1 = 1
Settings | viscosity [mPa·s]
293.15 K | 2.188
298.15 K | 1.974
303.15 K | 1.761
308.15 K | 1.575
313.15 K | 1.416
318.15 K | 1.273
323.15 K | 1.15

CCO + COP(=O)([O-])OC.Cn1cc[n+](C)c1
x1 = 1
Settings | viscosity [mPa·s]
293.15 K | 1.192
298.15 K | 1.085
303.15 K | 0.99
308.15 K | 0.906
313.15 K | 0.831
318.15 K | 0.764
323.15 K | 0.704

CO + COP(=O)([O-])OC.Cn1cc[n+](C)c1
x1 = 1
Settings | viscosity [mPa·s]
293.15 K | 0.586
298.15 K | 0.552
308.15 K | 0.491
313.15 K | 0.465
323.15 K | 0.418
